Measurements reported in article PMC10388311, “Innovative Strategy toward Mutant CFTR Rescue in Cystic Fibrosis: Design and Synthesis of Thiadiazole Inhibitors of the E3 Ligase RNF5” (Journal of Medicinal Chemistry, 2023).

Biological target: F508del-CFTR in CFBE41o– cells (Homo sapiens, UniProt Q99942)
Test: HS-YFP microfluorimetric assay of F508del-CFTR rescue (corrector activity)
Type: cell-based
Conditions: CFBE41o– cells co-expressing F508del-CFTR and HS-YFP, 24 h treatment, Figure 5
Method: As a primary screen, the new thiadiazole derivatives 1–46 (Table 1) were tested for their ability to rescue the F508del-CFTR trafficking defect in CFBE41o^– cells, stably co-expressing F508del-CFTR and the HS-YFP (Figure 5). This cell line has been extensively used by our group, in combination with the microfluorimetric assay based on the HS-YFP, to identify and characterize many CFTR correctors.[39],[47] This assay relies on the hypothesis that RNF5 inhibition results in increased mutant CFTR processing and activity. Therefore, it can easily identify putative RNF5 inhibitors, but not other types of RNF5-binding compounds that could have no effect or have a negative effect on CFTR function, such as RNF5 activators (see analog-1). Thus, we opted for this assay as our primary aim was the identification of RNF5 inhibitors as a possible therapeutic strategy in CF. Twenty-four hours after seeding on 96-well plates, CFBE41o^– cells stably expressing F508del-CFTR and the HS-YFP were treated with test compounds at the desired concentration, one compound per well. Cells treated with vehicle alone (DMSO) and with corrector VX-809 (1 μM), respectively, served as negative and positive controls. At the time of the assay, cells were washed with PBS containing (in […]) 137 NaCl, 2.7 KCl, 8.1 Na2HPO4, 1.5 KH2PO4, 1 CaCl2, and 0.5 MgCl2. Cells were then incubated for 25 min with […] of PBS plus forskolin (20 μM) and VX-770 (1 μM) to maximally stimulate F508del-CFTR. Cells were then transferred to a microplate reader (FluoStar Galaxy; BMG Labtech, Offenburg, Germany) for CFTR activity determination. The plate reader was equipped with high-quality excitation (HQ500/20X: 500 ± 10 nm) and emission (HQ535/30M: 535 ± 15 nm) filters for YFP (Chroma Technology). Each assay comprised a continuous 14 s fluorescence reading and 2 s before and 12 s after injection of […] of an iodide-containing solution (PBS with Cl^– replaced by I^–; final I^– concentration […]). Data were normalized to the initial background-subtracted fluorescence. To determine the I^– influx rate, the final 11 s of the data for each well was fitted with an exponential function to extrapolate initial slope (dF/dt). Reproducibility of results was confirmed by performing three independent experiments. CFBE41o^– cells co-expressing F508del-CFTR and the HS-YFP were reverse-transfected with 50 nM (final concentration) siRNAs (Stealth, Life Technologies) in the presence of lipofectamine 2000 as a transfection agent. The following day, the medium was changed, and the cells were incubated at 37 °C for additional 24 h treated with test compounds at the desired concentration, prior to processing the cells for the YFP-based functional assay.

Chain of F508del-CFTR in CFBE41o– cells (Q99942 2-180): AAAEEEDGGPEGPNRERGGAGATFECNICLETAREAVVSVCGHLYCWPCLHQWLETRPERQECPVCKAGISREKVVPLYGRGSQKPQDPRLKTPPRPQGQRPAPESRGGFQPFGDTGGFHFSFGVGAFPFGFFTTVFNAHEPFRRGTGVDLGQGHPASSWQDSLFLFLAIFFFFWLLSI
Chain of F508del-CFTR in CFBE41o– cells (P13569 with tags, fused parts or gaps DEL508-508 partner): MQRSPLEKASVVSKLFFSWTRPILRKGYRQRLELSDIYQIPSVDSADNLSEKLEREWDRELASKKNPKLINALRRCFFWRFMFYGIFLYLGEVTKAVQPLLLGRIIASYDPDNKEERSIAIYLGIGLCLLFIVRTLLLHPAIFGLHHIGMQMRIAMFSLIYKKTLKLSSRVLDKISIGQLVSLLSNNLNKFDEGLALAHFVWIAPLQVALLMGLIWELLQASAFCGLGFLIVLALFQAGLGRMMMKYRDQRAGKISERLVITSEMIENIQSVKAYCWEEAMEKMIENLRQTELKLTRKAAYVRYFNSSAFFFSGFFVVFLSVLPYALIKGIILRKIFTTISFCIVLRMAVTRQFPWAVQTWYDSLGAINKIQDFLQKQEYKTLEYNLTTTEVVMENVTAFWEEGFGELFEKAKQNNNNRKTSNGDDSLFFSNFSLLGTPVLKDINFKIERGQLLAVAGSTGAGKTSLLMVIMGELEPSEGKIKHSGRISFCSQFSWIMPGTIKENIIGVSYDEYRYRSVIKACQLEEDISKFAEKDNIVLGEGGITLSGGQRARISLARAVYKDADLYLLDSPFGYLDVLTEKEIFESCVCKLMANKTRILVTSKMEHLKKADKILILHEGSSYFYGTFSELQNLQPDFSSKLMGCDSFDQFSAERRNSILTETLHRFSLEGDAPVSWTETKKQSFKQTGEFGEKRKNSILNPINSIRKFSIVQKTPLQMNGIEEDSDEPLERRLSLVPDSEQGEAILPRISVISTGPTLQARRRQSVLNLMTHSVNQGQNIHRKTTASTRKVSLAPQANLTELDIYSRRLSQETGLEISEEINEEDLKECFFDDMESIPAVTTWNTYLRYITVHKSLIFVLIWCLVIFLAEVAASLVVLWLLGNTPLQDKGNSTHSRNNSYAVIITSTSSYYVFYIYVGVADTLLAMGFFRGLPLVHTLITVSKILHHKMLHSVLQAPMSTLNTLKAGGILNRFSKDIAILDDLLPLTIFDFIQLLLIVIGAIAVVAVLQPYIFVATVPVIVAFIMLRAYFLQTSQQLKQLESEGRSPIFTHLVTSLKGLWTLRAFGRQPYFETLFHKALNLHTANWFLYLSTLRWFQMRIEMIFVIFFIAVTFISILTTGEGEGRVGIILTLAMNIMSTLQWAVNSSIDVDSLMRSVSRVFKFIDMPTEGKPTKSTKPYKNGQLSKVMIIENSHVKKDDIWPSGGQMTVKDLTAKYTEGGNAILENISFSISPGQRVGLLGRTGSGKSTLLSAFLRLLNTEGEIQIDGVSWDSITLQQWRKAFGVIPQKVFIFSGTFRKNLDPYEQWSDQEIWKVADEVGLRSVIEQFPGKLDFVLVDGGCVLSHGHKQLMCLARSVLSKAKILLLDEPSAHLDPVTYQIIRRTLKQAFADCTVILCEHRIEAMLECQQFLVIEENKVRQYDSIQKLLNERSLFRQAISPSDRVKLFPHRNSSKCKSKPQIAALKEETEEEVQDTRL

| Compound | F508del-CFTR corrector activity compared with inh-2 (CFTR activity, primary screen) |
| --- | --- |
| Cc1ns/c(=N\C(=N\c2ccccc2)c2ccccc2)n1CCc1ccccc1 [Compound 4, (E)-N-((Z)-3-Methyl-4-phenethyl-1,2,4-thiadiazol-5(4H)-ylidene)-N′-phenylbenzimidamide] | devoid of significant F508del-CFTR corrector activity |
| Cc1ns/c(=N\C(=N\c2ccccc2)c2ccccc2)n1CCCc1ccccc1 [Compound 5, (E)-N-((Z)-3-Methyl-4-(3-phenylpropyl)-1,2,4-thiadiazol-5(4H)-ylidene)-N′-phenylbenzimidamide] | devoid of significant F508del-CFTR corrector activity |
| Cc1ccc(Cn2c(C)ns/c2=N\C(=N\c2ccccc2)c2ccccc2)cc1 [Compound 6, (E)-N-((Z)-3-Methyl-4-(4-methylbenzyl)-1,2,4-thiadiazol-5(4H)-ylidene)-N′-phenylbenzimidamide] | maintained the activity unaltered |
| COc1ccc(Cn2c(C)ns/c2=N\C(=N\c2ccccc2)c2ccccc2)cc1 [Compound 7, (E)-N-((Z)-4-(4-Methoxybenzyl)-3-methyl-1,2,4-thiadiazol-5(4H)-ylidene)-N′-phenylbenzimidamide] | reduced potency |
| Cc1ns/c(=N\C(=N\c2ccccc2)c2ccccc2)n1Cc1ccc(O)cc1 [Compound 8, (E)-N-((Z)-4-(4-Hydroxybenzyl)-3-methyl-1,2,4-thiadiazol-5(4H)-ylidene)-N′-phenylbenzimidamide] | reduced potency |
| Cc1ns/c(=N\C(=N\c2ccccc2)c2ccccc2)n1Cc1ccc(Cl)cc1 [Compound 10, (E)-N-((Z)-4-(4-Chlorobenzyl)-3-methyl-1,2,4-thiadiazol-5(4H)-ylidene)-N′-phenylbenzimidamide] | maintained the activity unaltered |
| Cc1ns/c(=N\C(=N\c2ccccc2)c2ccccc2)n1Cc1ccc(N)cc1 [Compound 13, (E)-N-((Z)-4-(4-Aminobenzyl)-3-methyl-1,2,4-thiadiazol-5(4H)-ylidene)-N′-phenylbenzimidamide] | reduced potency |
| Cc1cccc(Cn2c(C)ns/c2=N\C(=N\c2ccccc2)c2ccccc2)c1 [Compound 14, (E)-N-((Z)-3-Methyl-4-(3-methylbenzyl)-1,2,4-thiadiazol-5(4H)-ylidene)-N′-phenylbenzimidamide] | did not affect the activity |
| Cc1ns/c(=N\C(=N\c2ccccc2)c2ccccc2)n1Cc1cccc(C(F)(F)F)c1 [Compound 15, (E)-N-((Z)-3-Methyl-4-(3-(trifluoromethyl)benzyl)-1,2,4-thiadiazol-5(4H)-ylidene)-N′-phenylbenzimidamide] | decreased potency |
| Cc1ns/c(=N\C(=N\c2ccccc2)c2ccccc2)n1Cc1cccc(OC(C)C)c1 [Compound 18, (E)-N-((Z)-4-(3-Isopropoxybenzyl)-3-methyl-1,2,4-thiadiazol-5(4H)-ylidene)-N′-phenylbenzimidamide] | decreased potency |
| CCOc1cccc(Cn2c(C)ns/c2=N\C(=N\c2ccccc2)c2ccccc2)c1 [Compound 19, (E)-N-((Z)-4-(3-Ethoxybenzyl)-3-methyl-1,2,4-thiadiazol-5(4H)-ylidene)-N′-phenylbenzimidamide] | did not affect the activity |
| Cc1ns/c(=N\C(=N\c2ccccc2)c2ccccc2)n1Cc1cccc(N)c1 [Compound 20, (E)-N-((Z)-4-(3-Aminobenzyl)-3-methyl-1,2,4-thiadiazol-5(4H)-ylidene)-N′-phenylbenzimidamide] | decreased potency |
| Cc1ns/c(=N\C(=N\c2ccccc2)c2ccccc2)n1Cc1cccc(N(C)C)c1 [Compound 22, (E)-N-((Z)-4-(3-(Dimethylamino)benzyl)-3-methyl-1,2,4-thiadiazol-5(4H)-ylidene)-N′-phenylbenzimidamide] | did not affect the activity |
| Cc1ns/c(=N\C(=N\c2ccccc2)c2ccccc2)n1Cc1cccc(F)c1 [Compound 23, (E)-N-((Z)-4-(3-Fluorobenzyl)-3-methyl-1,2,4-thiadiazol-5(4H)-ylidene)-N′-phenylbenzimidamide] | did not affect the activity |
| Cc1ns/c(=N\C(=N\c2ccccc2)c2ccccc2)n1Cc1cccc(Cl)c1 [Compound 24, (E)-N-((Z)-4-(3-Chlorobenzyl)-3-methyl-1,2,4-thiadiazol-5(4H)-ylidene)-N′-phenylbenzimidamide] | increased activity |
| Cc1ccccc1Cn1c(C)ns/c1=N\C(=N\c1ccccc1)c1ccccc1 [Compound 25, (E)-N-((Z)-3-Methyl-4-(2-methylbenzyl)-1,2,4-thiadiazol-5(4H)-ylidene)-N′-phenylbenzimidamide] | slight increase in activity |
| Cc1ns/c(=N\C(=N\c2ccccc2)c2ccccc2)n1Cc1ccccc1C(F)(F)F [Compound 26, (E)-N-((Z)-3-Methyl-4-(2-(trifluoromethyl)benzyl)-1,2,4-thiadiazol-5(4H)-ylidene)-N′-phenylbenzimidamide] | detrimental effect |
| COc1ccccc1Cn1c(C)ns/c1=N\C(=N\c1ccccc1)c1ccccc1 [Compound 27, (E)-N-((Z)-4-(2-Methoxybenzyl)-3-methyl-1,2,4-thiadiazol-5(4H)-ylidene)-N′-phenylbenzimidamide] | slight increase in activity |
| Cc1ns/c(=N\C(=N\c2ccccc2)c2ccccc2)n1Cc1ccccc1Cl [Compound 28, (E)-N-((Z)-4-(2-Chlorobenzyl)-3-methyl-1,2,4-thiadiazol-5(4H)-ylidene)-N′-phenylbenzimidamide] | comparable activity to the unsubstituted original hit inh-2 |
| Cc1ns/c(=N\C(=N\c2ccccc2)c2cccnc2)n1Cc1ccccc1 [Compound 35, (E)-N-((Z)-4-Benzyl-3-methyl-1,2,4-thiadiazol-5(4H)-ylidene)-N′-phenylnicotinimidamide] | drop of activity |
| Cc1ns/c(=N\C(=N\c2ccccc2)c2ccco2)n1Cc1ccccc1 [Compound 36, (E)-N-((Z)-4-Benzyl-3-methyl-1,2,4-thiadiazol-5(4H)-ylidene)-N′-phenylfuran-2-carboximidamide] | drop of activity |
| Cc1cccc(/N=C(/N=c2\snc(C)n2Cc2ccccc2)c2ccccc2)c1 [Compound 37, (E)-N-((Z)-4-Benzyl-3-methyl-1,2,4-thiadiazol-5(4H)-ylidene)-N′-(m-tolyl)benzimidamide] | inactive analogs |
